Measured values taken from patent US20140303090A1, “Smac Mimetic Therapy” (TETRALOGIC PHARMACEUTICALS CORPORATION, priority 2013, published 2014).
Like-named read-outs stand apart in the source and are kept apart here.

Columns and labels:
cIAP2 BIR3 = cIAP2 BIR3 (Homo sapiens, UniProt Q13489); assay: Fluorescence polarization displacement assay, cIAP2 BIR3
Description: (§7) To establish protein-ligand binding affinity, we employed a fluorescence polarization assay. This assay monitored the displacement of an IAP binding motif (IBM)-containing peptide, Abu-RPFK(5-carboxyfluorescein)-NH2, from the Type III BIR domains of cIAP1, cIAP2, XIAP, and ML-IAP.

cIAP1 BIR3 = cIAP1 BIR3 (Homo sapiens, UniProt Q13490); assay: Fluorescence polarization displacement assay, cIAP1 BIR3
Description: as §7

[1] = system: DAP-mediated NF-κB-luc (NOD1); assay: DAP-stimulated NF-kB luciferase reporter gene assay (NOD1 signaling) in HCT116 cells; assay type: cell-based, human
Experimental: (§1) To assay effects on XIAP E3 ubiquitin ligase activity manifested as NF-kB activation, we established both DAP- and MDP-stimulated luciferase reporter gene assays in which Smac mimetics are evaluated in cells at a single 10 μM drug concentration. Specifically, we developed stable cell lines with HCT116 cells (human colon cancer) that carry the NF-kB-luciferase reporter gene under the regulation of NF-kB promoter activation elements. The assay was carried out as follows: • 1. HCT116 (3-3) cells were cultured in white wall 96-wells plate (50,000 cells/50 μL/well) for overnight at 37° C. • 2. […] The luciferase activity in each well was measured by using Steady-Glo® Luciferase Assay System (Promega Corp.). 48 μL of luminescence detection reagent was added in each well, followed by brief agitation. The plate was left in dark for 15 minutes and then the luminescence activity was measured by using microplate reader Victor2 (PerkinElmer Life and Analytical Science, Shelton, Conn.). • 4. Calculation:
(§2) Luciferase activity in no ligand (i.e., […]) treatment wells=background (BG)
(§3) Luciferase activity in ligand only treatment wells=positive control (PC)
(§4) Luciferase activity in Smac mimetic (SM)+ligand treatment wells=Test • i) Test<PC
(§5) Inhibitory activity by SM(%)=100×[(PC−Test)/(PC−BG)] • ii) Test>PC
(§6) Activation by SM(%)=100×[(Test−BG)/(PC−BG)]

GFP-cIAP2 [2] = target: T1, GFP-cIAP2 (Homo sapiens, UniProt Q13489); assay: GFP-cIAP2 degradation assay (loss of GFP signal, flow cytometry); assay type: cell-based; conditions: read-out: ΔGFP-cIAP2 EC50, 24 h
T1 construct: expressed in transfected cells
T1 sequence (Q13489 whole entry): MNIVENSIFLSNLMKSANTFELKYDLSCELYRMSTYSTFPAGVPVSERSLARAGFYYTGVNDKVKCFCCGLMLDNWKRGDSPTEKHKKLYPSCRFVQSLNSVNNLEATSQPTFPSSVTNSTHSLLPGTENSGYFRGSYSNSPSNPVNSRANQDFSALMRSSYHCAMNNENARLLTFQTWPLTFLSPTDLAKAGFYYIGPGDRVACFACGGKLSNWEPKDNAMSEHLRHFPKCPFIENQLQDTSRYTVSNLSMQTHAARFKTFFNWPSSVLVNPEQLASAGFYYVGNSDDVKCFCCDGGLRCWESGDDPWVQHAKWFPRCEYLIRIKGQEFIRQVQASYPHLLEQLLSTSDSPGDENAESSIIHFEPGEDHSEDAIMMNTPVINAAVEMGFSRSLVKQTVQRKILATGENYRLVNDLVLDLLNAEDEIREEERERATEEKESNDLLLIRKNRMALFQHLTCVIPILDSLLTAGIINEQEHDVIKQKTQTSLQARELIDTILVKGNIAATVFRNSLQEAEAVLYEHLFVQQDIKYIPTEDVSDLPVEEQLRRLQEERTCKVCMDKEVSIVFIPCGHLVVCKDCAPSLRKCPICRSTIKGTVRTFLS

GFP-cIAP1 = target: T2, GFP-cIAP1 (Homo sapiens, UniProt Q13490); assay: GFP-cIAP1 degradation assay (loss of GFP signal, flow cytometry); assay type: cell-based
T2 construct: expressed in transfected cells
T2 sequence (Q13490 whole entry): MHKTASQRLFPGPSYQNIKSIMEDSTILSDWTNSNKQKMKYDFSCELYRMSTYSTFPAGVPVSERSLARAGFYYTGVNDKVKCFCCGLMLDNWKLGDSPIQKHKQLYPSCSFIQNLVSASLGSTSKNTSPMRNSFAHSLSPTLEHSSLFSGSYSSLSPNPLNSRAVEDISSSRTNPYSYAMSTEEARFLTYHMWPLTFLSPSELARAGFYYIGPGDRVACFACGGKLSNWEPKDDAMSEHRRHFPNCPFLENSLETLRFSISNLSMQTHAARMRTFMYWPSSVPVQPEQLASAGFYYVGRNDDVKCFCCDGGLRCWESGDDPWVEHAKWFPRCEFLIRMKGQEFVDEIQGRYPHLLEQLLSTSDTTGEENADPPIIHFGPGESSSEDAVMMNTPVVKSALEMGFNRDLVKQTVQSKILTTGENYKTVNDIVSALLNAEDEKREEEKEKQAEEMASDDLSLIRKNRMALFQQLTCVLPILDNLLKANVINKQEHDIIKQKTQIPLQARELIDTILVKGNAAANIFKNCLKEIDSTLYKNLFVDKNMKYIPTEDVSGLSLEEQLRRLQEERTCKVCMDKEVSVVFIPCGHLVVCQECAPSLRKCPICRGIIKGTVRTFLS

[3] = system: MDP-mediated NF-κB-luc (NOD2); assay: MDP-stimulated NF-kB luciferase reporter gene assay (NOD2 signaling) in HCT116 cells; assay type: cell-based, human
Experimental: as §1, §2, §3, §4, §5, §6

cIAP1-BUCR dimer = cIAP1-BUCR dimer (Homo sapiens, UniProt Q13490); assay: Co-immunoprecipitation of differentially-tagged cIAP1-BUCR constructs
Sequence of cIAP1-BUCR dimer (Q13490 260-618 limits assumed): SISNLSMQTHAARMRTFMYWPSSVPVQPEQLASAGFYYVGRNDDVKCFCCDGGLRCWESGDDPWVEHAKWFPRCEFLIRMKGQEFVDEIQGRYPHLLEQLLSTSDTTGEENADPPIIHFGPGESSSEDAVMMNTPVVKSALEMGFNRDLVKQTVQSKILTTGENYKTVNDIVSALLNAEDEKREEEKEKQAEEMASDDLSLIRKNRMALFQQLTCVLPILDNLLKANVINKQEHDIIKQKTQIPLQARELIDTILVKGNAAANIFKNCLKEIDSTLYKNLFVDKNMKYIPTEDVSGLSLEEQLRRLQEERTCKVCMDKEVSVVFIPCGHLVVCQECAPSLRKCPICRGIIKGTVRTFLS
Sequence of cIAP1-BUCR dimer (Q13490 260-618 limits assumed): as above

GFP-cIAP2 [4] = target: T1, GFP-cIAP2; assay: GFP-cIAP2 degradation assay (loss of GFP signal, flow cytometry); assay type: cell-based; conditions: read-out: ΔGFP-cIAP2 EC50, 2 h; 2 h; A375 cells
Description: In this assay, treatment of GFP-cIAP-expressing melanoma cell line A375 with Smac mimetic, Compound 15, for two hours, results in degradation of cIAP-1 and cIAP-2 with concomitant loss of GFP-signal.

ML-IAP BIR = target: T3, ML-IAP BIR (Homo sapiens, UniProt Q96CA5); assay: Fluorescence polarization displacement assay, ML-IAP BIR
T3 sequence (Q96CA5 63-179 limits assumed): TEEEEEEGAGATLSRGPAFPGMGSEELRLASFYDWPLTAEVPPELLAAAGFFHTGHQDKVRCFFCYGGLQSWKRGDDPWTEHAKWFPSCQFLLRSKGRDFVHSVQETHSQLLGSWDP
Description: as §7

cIAP1-BUCR [5] = target: T4, cIAP1-BUCR (Homo sapiens, UniProt Q13490); assay: cIAP1 auto-ubiquitylation in vitro (Ub transfer by cIAP1-BUCR)
T4 sequence (Q13490 260-618 limits assumed): as the sequence (Q13490 260-618 limits assumed) above
Description: To assess the E3 ligase activity of IAP antagonist-induced cIAP1-BUCR dimers, we monitored cIAP1 auto-ubiquitylation in vitro.

Xiap−/− murine BMDMs = assay: IL-1β secretion from LPS-primed XIAP knockout bone marrow-derived macrophages; assay type: cell-based; conditions: 24 h
Experimental: We thus evaluated a selection of Smac-mimetics in both LPS-primed wild-type (WT) and XIAP knockout (Xiap^−/−) murine BMDMs to assess their capacity to induce the secretion of IL-1β following treatment with Smac-mimetic (FIG. 4).
WT and Xiap^−/− BMDMs were primed with LPS±the indicated concentration of Smac-mimetics for 24 h. WT BMDM results are presented as the mean±SEM (n=3 biological independent repeats).

WT murine BMDMs = assay: IL-1β secretion from LPS-primed WT bone marrow-derived macrophages; assay type: cell-based; conditions: 24 h
Description: Given the heightened activity of 2 versus 1 on cIAP2, we speculated that the improved tolerability of 1 might also be associated with reduced antagonism of XIAP functional activity in this system. We thus evaluated a selection of Smac-mimetics in both LPS-primed wild-type (WT) and XIAP knockout (Xiap^−/−) murine BMDMs to assess their capacity to induce the secretion of IL-1β following treatment with Smac-mimetic (FIG. 4).
WT and Xiap^−/− BMDMs were primed with LPS±the indicated concentration of Smac-mimetics for 24 h. WT BMDM results are presented as the mean±SEM (n=3 biological independent repeats). […] Total levels of IL-1β induced by Smac-mimetics in these assays varied but the trend was identical.

XIAP BIR3 = XIAP BIR3 (Homo sapiens, UniProt P98170); assay: Fluorescence polarization displacement assay, XIAP BIR3
Sequence of XIAP BIR3 (P98170 241-356 limits assumed): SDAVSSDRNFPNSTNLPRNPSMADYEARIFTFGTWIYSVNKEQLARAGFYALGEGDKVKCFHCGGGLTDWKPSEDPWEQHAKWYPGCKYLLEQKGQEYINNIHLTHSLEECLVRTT
Description: as §7

Tolerability = conditions: in vivo
Description: . Binding of IAP antagonists to cIAP1 proteins induces a conformational rearrangement that exposes the RING domain. Once exposed, the RING domain dimerizes and E3 ubiquitin ligase activity is activated. Using a range of assays that evaluated cIAP1 stability; NF-κB activation; cIAP1 oligomeric state; […]. Birinapant-induced loss of cIAPs correlated with inhibition of TNF-mediated NF-κB activation, caspase activation, tumor cell killing, and tumor regression. Birinapant was well-tolerated. […]. […]; (ii.) decreased affinity for XIAP BIR3; (iii.) decreased ability to inhibit XIAP-dependent NOD signaling, despite its activity in an XIAP-dependent caspase-3 activation assay; and, (iv.) decreased pro-inflammatory IL-1β secretion. […]

cIAP1-BUCR [6] = target: T4, cIAP1-BUCR; assay: MALLS-SEC analysis of the oligomeric state of cIAP1-BUCR
Description: With 2 as a positive control, we used MALLS-SEC analysis to characterize the oligomeric state of cIAP1-BUCR in the presence of 1, the mono-D-Abu epimer (3), and the bis-D-Abu diastereomer (4).

[7] = 10 μM Smac mimetic, HCT116 cells

Sequence of cIAP1 BIR3 (Q13490 253-363 limits assumed): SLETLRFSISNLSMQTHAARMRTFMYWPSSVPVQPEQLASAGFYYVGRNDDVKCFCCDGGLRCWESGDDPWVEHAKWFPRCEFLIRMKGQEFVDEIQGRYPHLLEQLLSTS
Sequence of cIAP2 BIR3 (Q13489 238-349 limits assumed): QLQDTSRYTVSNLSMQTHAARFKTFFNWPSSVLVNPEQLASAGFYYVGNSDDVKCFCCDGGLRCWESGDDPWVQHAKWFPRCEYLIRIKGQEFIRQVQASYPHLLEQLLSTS

- Ki (cIAP2 BIR3): ~1 nM
- Ki (cIAP1 BIR3): ~1 nM
- DC50 (GFP-cIAP2 [2]): 27 ± 17 nM
- DC50 (GFP-cIAP1; read-out: ΔGFP-cIAP1 EC50, 2 h, 2 h, A375 cells): 13 ± 5 nM
- DC50 (GFP-cIAP1; read-out: ΔGFP-cIAP1 EC50, 24 h, 24 h): 4 ± 2 nM
- co-IP of Flag-tagged cIAP1-BUCR with mbw-tagged cIAP1-BUCR (cIAP1-BUCR dimer): allowed the co-IP
- DC50 (GFP-cIAP2 [4]): 43 ± 17 nM
- Ki (ML-IAP BIR): ~1 nM
- EC50 (TNF-mediated NF-κB-luc): 8 ± 2 nM
- Ub transfer by cIAP1-BUCR (auto-ubiquitylation) (cIAP1-BUCR [5]): increased
- Ki (XIAP BIR3): ~1 nM
SMILES: CN[C@@H](C)C(=O)N[C@H](C(=O)N1CCC[C@H]1Cc1c(-c2ccc(-c3c(C[C@@H]4CCCN4C(=O)[C@@H](NC(=O)[C@H](C)NC)C(C)(C)C)c4ccc(F)cc4n3CCO)cc2)n(CCO)c2cc(F)ccc12)C(C)(C)C [Compound A (2), reference compound]
- Inhibition of DAP-mediated NF-κB-luc, % Inhibition [1, 7]: 98 (+/−1) %
- Inhibition of DAP-mediated NF-KB-luc @ 2 h, % Inhibition ([1]; @ 2 h): 98 ± 1%
- Inhibition of MDP-mediated NF-κB-luc, % Inhibition [3, 7]: 99 (+/−1) %
- Inhibition of MDP-mediated NF-KB-luc @ 2 h, % Inhibition ([3]; @ 2 h): 99 ± 1%
- IL-1β secretion in Xiap−/− BMDMs (Xiap−/− murine BMDMs): induced IL-1β secretion
- IL-1β secretion from LPS-primed WT BMDMs (WT murine BMDMs): capable of inducing IL-1β secretion
- tolerability (Tolerability): poorly tolerated
- cIAP1-BUCR dimerization (cIAP1-BUCR [6]): formation of the higher molecular weight cIAP1-BUCR dimer
